Measurements: ChEMBL document CHEMBL4742387, “Condensed tricyclic compounds as protein kinase inhibitors” (2018)

What was measured:
DU-145 = experiment: Antiproliferative activity against human DU-145 cells assessed as reduction in cell proliferation by CellTiter-Glo luminescent cell viability assay; type: functional
HCT-116 = experiment: Antiproliferative activity against human HCT-116 cells assessed as reduction in cell proliferation by CellTiter-Glo luminescent cell viability assay; type: functional
SW-620 = experiment: Antiproliferative activity against human SW-620 cells assessed as reduction in cell proliferation by CellTiter-Glo luminescent cell viability assay; type: functional
CDK8/Cyclin C = CDK8/Cyclin C (Homo sapiens, UniProt P49336); experiment: Inhibition of kinase tracer 236 binding to full-length His-tagged recombinant human CDK8/cyclin C incubated for 60 mins by FRET based LanthaScreen Eu-Kinase binding assay; type: protein-complex assay
MDA-MB-231 = experiment: Antiproliferative activity against human MDA-MB-231 cells assessed as reduction in cell proliferation by CellTiter-Glo luminescent cell viability assay; type: functional
[1] = biological target: T1, Serine/threonine-protein kinase haspin (Homo sapiens, UniProt Q8TF76); experiment: Inhibition of GST-tagged recombinant human haspin kinase domain incubated for 60 mins by ADP-Glo luminescent kinase assay
T1 sequence (Q8TF76 whole entry): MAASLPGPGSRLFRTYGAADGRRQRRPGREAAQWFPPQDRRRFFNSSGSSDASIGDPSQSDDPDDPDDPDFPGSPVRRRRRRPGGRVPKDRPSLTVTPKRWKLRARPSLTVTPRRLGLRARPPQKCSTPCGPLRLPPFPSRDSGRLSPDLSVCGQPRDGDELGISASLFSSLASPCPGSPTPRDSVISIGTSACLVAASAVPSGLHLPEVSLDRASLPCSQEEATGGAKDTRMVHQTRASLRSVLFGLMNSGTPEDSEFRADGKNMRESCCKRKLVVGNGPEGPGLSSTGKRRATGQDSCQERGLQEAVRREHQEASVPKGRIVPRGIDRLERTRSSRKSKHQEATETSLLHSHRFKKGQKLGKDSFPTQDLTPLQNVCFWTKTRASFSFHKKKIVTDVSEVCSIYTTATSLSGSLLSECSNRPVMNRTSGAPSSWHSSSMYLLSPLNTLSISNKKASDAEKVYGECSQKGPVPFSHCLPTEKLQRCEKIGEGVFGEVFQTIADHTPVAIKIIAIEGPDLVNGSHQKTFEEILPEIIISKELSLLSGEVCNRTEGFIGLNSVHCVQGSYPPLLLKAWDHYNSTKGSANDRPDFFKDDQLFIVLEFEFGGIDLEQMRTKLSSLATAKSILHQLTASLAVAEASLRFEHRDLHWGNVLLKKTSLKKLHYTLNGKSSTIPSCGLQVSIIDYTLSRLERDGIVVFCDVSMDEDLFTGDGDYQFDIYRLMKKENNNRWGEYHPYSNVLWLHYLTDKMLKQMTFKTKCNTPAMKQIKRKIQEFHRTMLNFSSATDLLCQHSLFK

MV4-11 = experiment: Antiproliferative activity against human MV4-11 cells assessed as reduction in cell proliferation by CellTiter-Glo luminescent cell viability assay; type: functional
[2] = biological target: Cyclin-C/Cyclin-dependent kinase 19 (Homo sapiens, UniProt Q9BWU1); experiment: Inhibition of kinase tracer 236 binding to full-length His-tagged recombinant human CDK19/cyclin C incubated for 60 mins by FRET based LanthaScreen Eu-Kinase binding assay; type: protein-complex assay
[3] = biological target: T2, Cyclin-dependent kinase 8 (Homo sapiens, UniProt P49336); experiment: Inhibition of CDK8 in human SW-620 cells assessed as reduction in STAT1 S727 phosphorylation pre-incubated for 1 hr before IFNgamma stimulation for 3 hrs by Western blot analysis; type: cell-based; details: time 4.0 hrs
MOLM-13 = experiment: Antiproliferative activity against human MOLM-13 cells assessed as reduction in cell proliferation by CellTiter-Glo luminescent cell viability assay; type: functional; details: Homo sapiens, MOLM-13
[4] = biological target: T3, Serine/threonine-protein kinase haspin (Homo sapiens) (UniProt Q8TF76); experiment: Inhibition of haspin in human SW620 cells assessed as reduction in IFNgamma-induced H3T3 phosphorylation pre-incubated for 1 hr before IFNgamma stimulation for 3 hrs by Western blot analysis; type: cell-based; details: SW-620, time 4.0 hrs
T3 sequence (whole entry): T1 sequence (Q8TF76 whole entry)

[5] = biological target: T2, Cyclin-dependent kinase 8; experiment: Inhibition of CDK8 in human SW-620 cells assessed as reduction in IFNgamma-induced STAT1 S727 phosphorylation pre-incubated for 1 hr before IFNgamma stimulation for 3 hrs by Western blot analysis; type: cell-based; details: time 4.0 hrs
[6] = biological target: T3, Serine/threonine-protein kinase haspin (Homo sapiens); experiment: Inhibition of haspin in synchronized human SW620 cells assessed as reduction in IFNgamma-induced H3T3 phosphorylation pre-incubated for 1 hr before IFNgamma stimulation for 3 hrs by Western blot analysis; type: cell-based; details: SW-620, time 4.0 hrs
SK-MEL19 = experiment: Antiproliferative activity against human SK-MEL19 cells assessed as reduction in cell proliferation by CellTiter-Glo luminescent cell viability assay; type: functional
BXPC-3 = experiment: Antiproliferative activity against human BXPC-3 cells assessed as reduction in cell proliferation by CellTiter-Glo luminescent cell viability assay; type: functional
A549 = experiment: Antiproliferative activity against human A549 cells assessed as reduction in cell proliferation by CellTiter-Glo luminescent cell viability assay; type: functional

T2 sequence (P49336 whole entry): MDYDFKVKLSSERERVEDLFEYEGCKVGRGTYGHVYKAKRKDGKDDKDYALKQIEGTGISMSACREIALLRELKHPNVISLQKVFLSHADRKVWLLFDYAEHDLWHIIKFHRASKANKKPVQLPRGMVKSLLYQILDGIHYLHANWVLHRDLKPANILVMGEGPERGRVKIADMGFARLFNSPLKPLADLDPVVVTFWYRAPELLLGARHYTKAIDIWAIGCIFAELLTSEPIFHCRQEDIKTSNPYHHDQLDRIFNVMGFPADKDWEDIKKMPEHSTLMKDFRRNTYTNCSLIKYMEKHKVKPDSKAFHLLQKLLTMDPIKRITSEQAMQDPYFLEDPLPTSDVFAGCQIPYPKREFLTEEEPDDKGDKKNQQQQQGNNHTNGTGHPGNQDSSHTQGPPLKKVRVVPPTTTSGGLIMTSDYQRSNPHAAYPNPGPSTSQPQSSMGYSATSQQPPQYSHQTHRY
Sequence of CDK8/Cyclin C (P49336 whole entry): as above
Sequence of CDK8/Cyclin C (P24863 whole entry, further chain): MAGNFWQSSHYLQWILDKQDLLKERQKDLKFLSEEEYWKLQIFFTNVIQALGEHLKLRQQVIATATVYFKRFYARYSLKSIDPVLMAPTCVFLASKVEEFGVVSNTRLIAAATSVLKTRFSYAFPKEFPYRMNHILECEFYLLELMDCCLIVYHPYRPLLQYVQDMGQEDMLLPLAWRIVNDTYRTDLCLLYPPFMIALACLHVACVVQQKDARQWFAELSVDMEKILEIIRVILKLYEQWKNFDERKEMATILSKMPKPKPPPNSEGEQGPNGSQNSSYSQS
Sequence of Cyclin-C/Cyclin-dependent kinase 19 (Q9BWU1 whole entry): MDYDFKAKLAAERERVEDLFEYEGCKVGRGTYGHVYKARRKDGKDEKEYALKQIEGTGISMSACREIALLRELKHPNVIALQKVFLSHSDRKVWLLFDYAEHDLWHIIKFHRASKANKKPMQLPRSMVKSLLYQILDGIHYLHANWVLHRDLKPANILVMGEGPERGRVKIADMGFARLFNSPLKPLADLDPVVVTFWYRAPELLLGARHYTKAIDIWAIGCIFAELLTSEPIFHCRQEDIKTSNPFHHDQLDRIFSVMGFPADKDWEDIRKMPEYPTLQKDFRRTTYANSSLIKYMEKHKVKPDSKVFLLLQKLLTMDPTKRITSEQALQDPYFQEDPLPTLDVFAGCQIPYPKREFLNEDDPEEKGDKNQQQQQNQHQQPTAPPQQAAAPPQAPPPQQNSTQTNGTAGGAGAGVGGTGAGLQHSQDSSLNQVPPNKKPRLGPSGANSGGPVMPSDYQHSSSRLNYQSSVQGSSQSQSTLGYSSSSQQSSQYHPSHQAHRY
Sequence of Cyclin-C/Cyclin-dependent kinase 19 (P24863 whole entry, further chain): as the sequence (P24863 whole entry, further chain) above

GI50 (SW-620; Homo sapiens, SW-620)	INH [3]	GI50 (MDA-MB-231; Homo sapiens, MDA-MB-231)	GI50 (MV4-11; Homo sapiens, MV4-11)	GI50 (MOLM-13)	SMILES	further results
0.5 µM					COc1cc(Nc2ncc3c(n2)-c2ccc(Cl)cc2C(c2c(F)cccc2OC)=NC3)ccc1C(=O)O [ALISERTIB]	GI50 (DU-145): 12.5 µM; GI50 (HCT-116): 12.5 µM
					CCn1c(C(N)=O)cc2c1-c1ccncc1OC21CCCCC1	IC50 (CDK8/Cyclin C): 0.301 µM
					NC(=O)c1cc2c([nH]1)-c1ccncc1OC2C1CCOCC1 (stereo in doubt; form 2)	IC50 (CDK8/Cyclin C): 0.00446 µM; GI50 (MDA-MB-231): 10 µM; IC50 [1]: 0.406 µM; GI50 (MV4-11): 1 µM; GI50 (SW-620): 10 µM; IC50 [2]: 0.0142 µM
1 µM	< 500 nM	1 µM	< 1 µM	< 1 µM	NC(=O)c1cc2c(n1CCF)-c1ccncc1OC21CCCCC1	INH [4]: < 500 nM
10 µM		10 µM	< 1 µM	1 µM	CCn1c(C(N)=O)c(-c2cccc(OC)c2)c2c1-c1ccncc1OC2(C)C	
1 µM	< 500 nM	1 µM	< 1 µM	1 µM	CC1(C)Oc2cnccc2-c2[nH]c(C(N)=O)c(C3CC3)c21	
10 µM		10 µM	1 µM	10 µM	COCCn1c(C(N)=O)cc2c1-c1ccncc1OC21CCOCC1	
1 µM		1 µM	< 1 µM	< 1 µM	Cn1c(C(N)=O)cc2c1-c1ccncc1OC21CCOCC1	
			< 1 µM	1 µM	NC(=O)c1cc2c([nH]1)-c1ccncc1OC2C1CCOCC1 (stereo in doubt; form 1)	IC50 (CDK8/Cyclin C): 0.281 µM; GI50 (MDA-MB-231): 1 µM; IC50 [1]: 5.76 µM; GI50 (SW-620): 1 µM
0.005 µM					CC(=O)O[C@H]1C(=O)[C@@]2(C)[C@H]([C@H](OC(=O)c3ccccc3)[C@]3(O)C[C@H](OC(=O)[C@H](O)[C@@H](NC(=O)c4ccccc4)c4ccccc4)C(C)=C1C3(C)C)[C@]1(OC(C)=O)CO[C@@H]1C[C@@H]2O [PACLITAXEL]	GI50 (HCT-116): 0.005 µM
					COCCn1c(C(N)=O)cc2c1-c1ccncc1OC2(C)C	INH [5]: < 500 nM; INH [6]: < 500 nM
10 µM		10 µM	1 µM	1 µM	NC(=O)c1cc2c([nH]1)-c1ccncc1OC21CCN(CC(F)(F)F)CC1	
< 1 µM		1 µM	< 1 µM	< 1 µM	NC(=O)c1cc2c([nH]1)-c1ccncc1OC2C1CCCCC1 (stereo unspecified)	IC50 (CDK8/Cyclin C): 0.0193 µM; INH [5]: < 500 nM; IC50 [2]: 0.0873 µM; INH [6]: 500 nM
1 µM	< 500 nM	1 µM	< 1 µM	< 1 µM	CCn1c(C(N)=O)cc2c1-c1ccncc1OC21CCOCC1	INH [4]: < 500 nM
					NC(=O)c1cc2c(n1CCF)-c1ccncc1OC21CCOCC1	IC50 (CDK8/Cyclin C): < 0.00141 µM
10 µM	< 500 nM	1 µM	< 1 µM	< 1 µM	NC(=O)c1cc2c([nH]1)-c1ccncc1OC21CCC1	
1 µM	< 500 nM	1 µM	< 1 µM	< 1 µM	CCn1c(C(N)=O)cc2c1-c1ccncc1OC21CCN(CC(F)(F)F)CC1	INH [4]: < 500 nM
1 µM	< 500 nM	1 µM	< 1 µM	< 1 µM	Cn1c(C(N)=O)cc2c1-c1ccncc1OC21CCCCC1	
10 µM	< 500 nM	10 µM	< 1 µM	< 1 µM	CCn1c(C(N)=O)c(-c2ccccc2OC)c2c1-c1ccncc1OC2(C)C	INH [5]: < 500 nM; INH [6]: < 500 nM; INH [4]: < 500 nM
0.25 µM		0.25 µM			CN(NC(=O)CC(=O)NN(C)C(=S)c1ccccc1)C(=S)c1ccccc1 [ELESCLOMOL]	GI50 (SK-MEL19): 0.25 µM; GI50 (BXPC-3): 0.062 µM; GI50 (A549): 0.25 µM
